1 compound from patent US4213895A, “N-[N-[N-[ N-[N-(5-Oxo-L-prolyl)-L-histidyl]-L-tryptophyl]-L-seryl]-L-tyrosyl]glycin e azide, an intermediate of the releasing agent of luteinizing hormone (LW) and of follicle stimulating hormone (FSH)” (American Home Products Corporation, priority 1979, dated 1980) can be followed below.

Structures are written as SMILES.

Assay [1] deals with LH- and FSH-releasing. Description: LH- and FSH-releasing activity, radioimmunoassay described by Niswender et al. To be noted: acid addition salt. The text has this: (§1) Exp. Biol. Med., 128, 807 (1968).
The subject of assay [2] is induction of ovulation in the hamster. The assay can be described thus: Induction of ovulation in the hamster (Arimura et al., Science 174, 511). Conditions: acid addition salt. Format: in vivo.
Excerpt: as §1

The test system of assay [3] is induction of ovulation in the rat. Description: Induction of ovulation in the rat, modification of the assay of Arimura et al., Endocrinology 80, 515. Format: in vivo. To be noted: acid addition salt.
Excerpt: as §1

In assay [4] the test system is LH- and FSH-releasing. Description: Bioassays, not specified, comparison with the natural hormone. Conditions: diacetate salt. From the text:
Said last-named compound (VI) is condensed by means of the azide method via the azide, N-[N-[N-[N-[N-(5-oxo-L-prolyl)-L-histidyl]-L-tryptophyl]-L-seryl]-L-tyrosyl]glycine azide, with N-[N-[N-(N-leucyl)-L-arginyl]-L-prolyl]glycinamide diacetate (V) to yield the desired decapeptide 5-oxo-L-prolyl-L-histidyl-L-tryptophyl-L-seryl-L-tyrosylglycyl-L-leucyl-L- arginyl-L-prolylglycinamide (I) which is isolated in the form of its diacetate salt. The latter salt may be converted, if desired, into a different acid addition salt, e.g. a salt with a pharmaceutically acceptable acid, by treatment with the appropriate ion exchange resin in the manner described by Boissonas et al., Helv. Chim. Acta 43, 1349 (1960). Suitable ion exchange resins are strongly basic anion exchange resins, for example those listed in Greenstein and Winitz "Chemistry of the Amino Acids", Hohn Wiley and Sons, Inc., New York and London 1961, Vol. 2, p. 1456. Basically substituted cross-linked polystyrene resins such as Amerlite IRA-400 or IRA-410 are preferred. The above diacetate may also be converted to a salt of low solubility in body fluids by treatment with a slightly water-soluble pharmaceutically acceptable acid. The acid addition salts of the LH- and FSH-releasing hormone produced by the process of this invention with pharmacologically acceptable acids are biologically fully equivalent to the natural hormone. […]

Take `CC(C)C[C@H](NC(=O)CNC(=O)[C@H](Cc1ccc(O)cc1)NC(=O)[C@H](CO)NC(=O)[C@H](Cc1c[nH]c2ccccc12)NC(=O)[C@H](Cc1c[nH]cn1)NC(=O)[C@@H]1CCC(=O)N1)C(=O)N[C@@H](CCCNC(=N)N)C(=O)N1CCC[C@H]1C(=O)NCC(N)=O` [I, 5-oxo-L-prolyl-L-histidyl-L-tryptophyl-L-seryl-L-tyrosylglycyl-L-leucyl-L-arginyl-L-prolylglycinamide]: the “LH- and FSH-releasing activity relative to the natural hormone” value with LH- and FSH-releasing [1] was “as active as the natural hormone”. Besides, the “activity in induction of ovulation relative to the natural hormone” value in assay [2] and in assay [3] was “equally active” each time. In addition, the “potency in bioassays relative to the natural product” value in the assay on LH- and FSH-releasing [4] is listed as “as potent as the latter”.
